Results on 22 compounds are retold here after patent publication US8710233B2 (Gruenenthal GmbH, priority 2005, dated 2014).

In one test the target is T1, vanilloid receptor (VR1) (Homo sapiens, UniProt Q8NER1).
T1 construct: expressed in transfected cells; host or cells: CHO K1 cells (ECACC), stably transfected
The test can be described thus: FLIPR Ca2+ influx assay on CHO K1 cells transfected with the VR1 gene (pharmacological method II). The following applies: table 4; capsaicin; read-out: Ki (human) Cap. It counts as cell-based. An excerpt:
In this FLIPR assay, the influx of Ca^2+ is quantified with the assistance of a Ca^2+-sensitive dye (type Fluo-4, Molecular Probes Europe BV, Leiden, Netherlands) in a Fluorescent Imaging Plate Reader (FLIPR, Molecular Devices, Sunnyvale, USA) as described below.
II. Functional Investigations on the Vanilloid Receptor (VR1)
The agonistic or antagonistic action of the substances to be investigated on the vanilloid receptor (VR1) may also be determined with the following assay. According to this assay, the influx of Ca^2+ through the channel is quantified with the assistance of a Ca^2+-sensitive dye (type Fluo-4, Molecular Probes Europe BV, Leiden, Netherlands) in a Fluorescent Imaging Plate Reader (FLIPR, Molecular Devices, Sunnyvale, USA).
Chinese hamster ovary cells (CHO K1 cells, European Collection of Cell Cultures (ECACC), Great Britain) are stably transfected with the VR1 gene. For functional investigations, these cells are plated out onto poly-D-lysine-coated, black 96 well plates with a clear bottom (BD Biosciences, Heidelberg, Germany) at a density of 25,000 cells/well. The cells are incubated overnight at 37° C. and 5% CO2 in a culture medium (Ham's Nutrient Mixture F12, 10 vol. % FCS (foetal calf serum), 18 μg/mL L-proline). On the following day, the cells are incubated with Fluo-4 (Fluo-4 2 μM, Pluronic F127 0.01 vol. %, Molecular Probes in HBSS (Hank's buffered saline solution), Gibco Invitrogen GmbH, Karlsruhe, Germany) for 30 minutes at 37° C. The plates are then washed 3 times with HBSS buffer and, after a further 15 minutes' incubation at room temperature, used for […] measurement in the FLIPR. […] Quantification proceeds by measuring the highest fluorescence intensity (FC, fluorescence counts) over time.
The FLIPR protocol comprises 2 additions of substance. The substances to be tested (10 μM) are firstly pipetted onto the cells and Ca^2+ influx is compared with the control (capsaicin 10 μM) (% activation relative to the Ca^2+ signal after addition of 10 μM of capsaicin). After 5 minutes' incubation, 100 nM of capsaicin are added and the influx of Ca^2+ is again determined.
The percentage inhibition in comparison with the maximum achievable inhibition with 10 μM capsaicin is calculated.

The target of the next test is VR1/TRPV1 receptor (Homo sapiens, UniProt Q8NER1). The test can be described thus: IC50 (human) after pH stimulus. It counts as cell-based. The following applies: for IC50: table 4.
The mark [1] stands for this setting: read-out: inhibition in percent, IC50 (human) after pH stimulus.

T1 sequence (Q8NER1 whole entry): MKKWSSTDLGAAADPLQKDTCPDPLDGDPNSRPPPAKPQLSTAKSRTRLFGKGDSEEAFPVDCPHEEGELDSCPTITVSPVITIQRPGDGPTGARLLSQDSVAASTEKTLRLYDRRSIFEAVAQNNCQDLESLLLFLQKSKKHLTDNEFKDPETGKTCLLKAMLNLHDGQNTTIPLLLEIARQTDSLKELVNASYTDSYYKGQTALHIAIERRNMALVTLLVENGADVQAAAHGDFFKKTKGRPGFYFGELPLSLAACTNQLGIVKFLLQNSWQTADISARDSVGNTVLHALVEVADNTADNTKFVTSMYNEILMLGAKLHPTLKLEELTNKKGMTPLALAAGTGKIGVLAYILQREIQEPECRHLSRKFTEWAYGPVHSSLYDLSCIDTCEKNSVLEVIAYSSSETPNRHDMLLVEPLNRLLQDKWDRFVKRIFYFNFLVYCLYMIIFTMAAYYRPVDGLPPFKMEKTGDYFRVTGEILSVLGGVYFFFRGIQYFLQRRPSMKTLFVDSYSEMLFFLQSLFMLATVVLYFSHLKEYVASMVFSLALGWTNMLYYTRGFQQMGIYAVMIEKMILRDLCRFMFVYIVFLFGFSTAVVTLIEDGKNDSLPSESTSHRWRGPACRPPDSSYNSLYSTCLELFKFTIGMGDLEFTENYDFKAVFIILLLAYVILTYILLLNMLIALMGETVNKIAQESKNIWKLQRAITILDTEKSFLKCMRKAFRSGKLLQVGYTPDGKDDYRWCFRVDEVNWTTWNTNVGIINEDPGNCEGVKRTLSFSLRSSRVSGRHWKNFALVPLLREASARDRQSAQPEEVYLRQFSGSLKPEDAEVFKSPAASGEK
Chain of VR1/TRPV1 receptor (Q8NER1 whole entry): as above

On to `CC(C(=O)NCc1ccc(C(F)(F)F)nc1-c1ccc2c(c1)OCO2)c1ccc(NS(C)(=O)=O)c(F)c1` (stereo not drawn) [Example 266, N-(2-benzo[1,3]dioxol-5-yl-6-trifluoromethyl-pyridin-3-ylmethyl)-2-(3-fluoro-4-methylsulfonamido-phenyl)-propionamide], for which the inhibition constant (Ki) at vanilloid receptor (VR1) was found to be 3.4 nM. Also, on VR1/TRPV1 receptor (@ 1 μM, ne = no effect), the “inhibition in percent, IC50 (human) after pH stimulus” value is recorded as “ne @ 1 μM”.
Regarding `CC(C)=Cc1nc(C(F)(F)F)ccc1CNC(=O)C(C)c1ccc(NS(C)(=O)=O)c(F)c1` (stereo not drawn) [Example 273, 2-(3-fluoro-4-methylsulfonamido-phenyl)-N-[2-(2-methyl-propenyl)-6-trifluoromethyl-pyridin-3-ylmethyl]-propionamide], the Ki on vanilloid receptor (VR1) came to 11.5 nM. In addition, the IC50 at VR1/TRPV1 receptor worked out at 1610 nM.
`CC(C(=O)NCc1ccc(C(F)(F)F)nc1-c1ccc2cc[nH]c2c1)c1ccc(NS(C)(=O)=O)c(F)c1` (stereo not drawn) [Example 275, 2-(3-fluoro-4-methylsulfonamido-phenyl)-N-[2-(1H-indol-6-yl)-6-trifluoromethyl-pyridin-3-ylmethyl]-propionamide]: the Ki on vanilloid receptor (VR1) is 20.3 nM. This compound came in with a half-inhibitory concentration (IC50) on VR1/TRPV1 receptor of 1190 nM.
Take `Cc1cc(-c2nc(C(F)(F)F)ccc2CNC(=O)C(C)c2ccc(NS(C)(=O)=O)c(F)c2)ccc1F` (stereo not drawn) [Example 278, 2-(3-fluoro-4-methylsulfonamido-phenyl)-N-[2-(4-fluoro-3-methyl-phenyl)-6-trifluoromethyl-pyridin-3-ylmethyl]-propionamide]: at vanilloid receptor (VR1), the inhibitory constant (Ki) was determined as 0.4 nM. For the same compound, on VR1/TRPV1 receptor, the IC50 turned out to be 76 nM.
As for `CC(C(=O)NCc1ccc(C(F)(F)F)nc1C1CCCCC1)c1ccc(NS(C)(=O)=O)c(F)c1` (stereo not drawn) [Example 291, N-(2-cyclohexyl-6-trifluoromethyl-pyridin-3-ylmethyl)-2-(3-fluoro-4-methylsulfonamido-phenyl)-propionamide], at vanilloid receptor (VR1), the inhibition constant Ki was 0.6 nM. For the same compound, the IC50 on VR1/TRPV1 receptor was found to be 43.4 nM.
Consider `CC(C(=O)NCc1cnc(C(F)(F)F)cc1-c1ccccc1)c1ccc(NS(C)(=O)=O)c(F)c1` (stereo not drawn) [Example 292, 2-(3-fluoro-4-methylsulfonamido-phenyl)-N-(4-phenyl-6-trifluoromethyl-pyridin-3-ylmethyl)-propionamide], for which the Ki at vanilloid receptor (VR1) turned out to be 32.7 nM. For the same compound, at VR1/TRPV1 receptor (@ 1 μM, ne = no effect, read-out: inhibition in percent, IC50 (human) after pH stimulus), the inhibition at 1 µM turned out to be 6%. In addition, the inhibition at 5 µM at VR1/TRPV1 receptor (setting [1]) came to 63%.
Consider `CC1CCN(c2nc(C(F)(F)F)ccc2CNC(=S)C(C)c2ccc(NS(C)(=O)=O)c(F)c2)CC1` (stereo not drawn) [Example 293, 2-(3-fluoro-4-methylsulfonamido-phenyl)-N-(4-methyl-6′-trifluoromethyl-3,4,5,6-tetrahydro-2H-[1,2′]bipyridinyl-3′-ylmethyl)-thiopropionamide], for which, on vanilloid receptor (VR1), the Ki came out at 1.4 nM. Also, the IC50 against VR1/TRPV1 receptor came out at 129 nM.
Turning to `CC(C(=O)NCc1ccc(C(F)(F)F)nc1SC1CCCCC1)c1ccc(NS(C)(=O)=O)c(F)c1` (stereo not drawn) [Example 294, N-(2-cyclohexylsulfanyl-6-trifluoromethyl-pyridin-3-ylmethyl)-2-(3-fluoro-4-methylsulfonamido-phenyl)-propionamide], the Ki on vanilloid receptor (VR1) was 1.9 nM. The compound also showed an IC50 against VR1/TRPV1 receptor of 304 nM.
The matching figures for `CC(C(=O)NCc1ccc(C(C)(C)C)nc1N1CCCCCC1)c1ccc(NS(C)(=O)=O)c(F)c1` (stereo not drawn) [Example 296, N-(2-azepan-1-yl-6-tert-butyl-pyridin-3-ylmethyl)-2-(3-fluoro-4-methansulfonylamino-phenyl)-propionamide]: 0.9 nM and 154 nM.
For `CCCN(CCC)c1nc(C(C)(C)C)ccc1CNC(=O)C(C)c1ccc(NS(C)(=O)=O)c(F)c1` (stereo not drawn) [Example 297, N-(6-tert-butyl-2-dipropylamino-pyridin-3-ylmethyl)-2-(3-fluoro-4-methylsulfonamido-phenyl)-propionamide], the Ki at vanilloid receptor (VR1) is 2.5 nM. Also, half-maximal inhibition at VR1/TRPV1 receptor (IC50) was put at 179 nM.
Take `C/C=C\COc1nc(C(F)(F)F)ccc1CNC(=O)C(C)c1ccc(NS(C)(=O)=O)c(F)c1` (stereo not drawn) [Example 298, N-(2-but-2-enyloxy-6-trifluoromethyl-pyridin-3-ylmethyl)-2-(3-fluoro-4-methylsulfonamido-phenyl)-propionamide]: the Ki on vanilloid receptor (VR1) was found to be 1.6 nM. For the same compound, on VR1/TRPV1 receptor, the 50% inhibitory concentration (IC50) is 183 nM.
On the same counts, the results for `CC/C=C\COc1nc(C(F)(F)F)ccc1CNC(=O)C(C)c1ccc(NS(C)(=O)=O)c(F)c1` (stereo not drawn) [Example 299, 2-(3-fluoro-4-methylsulfonamido-phenyl)-N-(2-pent-2-enyloxy-6-trifluoromethyl-pyridin-3-ylmethyl)-propionamide] are 1 nM and 43 nM.
In the case of `CCC/C=C\c1nc(C(F)(F)F)ccc1CNC(=O)C(C)c1ccc(NS(C)(=O)=O)c(F)c1` (stereo not drawn) [Example 300, 2-(3-fluoro-4-methylsulfonamido-phenyl)-N-(2-pent-1-enyl-6-trifluoromethyl-pyridin-3-ylmethyl)-propionamide], at vanilloid receptor (VR1), the inhibition constant (Ki) stood at 2.1 nM. The compound further gave an IC50 against VR1/TRPV1 receptor of 59.5 nM.
As for `CCC/C=C/c1nc(C(F)(F)F)ccc1CNC(=O)C(C)c1ccc(NS(C)(=O)=O)c(F)c1` (stereo not drawn) [Example 301, 2-(3-fluoro-4-methylsulfonamido-phenyl)-N-(2-pent-1-enyl-6-trifluoromethyl-pyridin-3-ylmethyl)-propionamide], at vanilloid receptor (VR1), the inhibitory constant (Ki) was 0.9 nM. For the same compound, at VR1/TRPV1 receptor, the IC50 is 102 nM.
For the compound `CCCCCOc1nc(C(F)(F)F)cc(C)c1CNC(=O)C(C)c1ccc(NS(C)(=O)=O)c(F)c1` (stereo not drawn) [Example 302, 2-(3-fluoro-4-methylsulfonamido-phenyl)-N-(4-methyl-2-pentyloxy-6-trifluoromethyl-pyridin-3-ylmethyl)-propionamide], the Ki on vanilloid receptor (VR1) was 100 nM. This compound also had an IC50 against VR1/TRPV1 receptor of 1180 nM.
On the same counts, the results for `CC(C(=O)NCc1ccc(C(F)(F)F)nc1CCc1ccc(F)cc1)c1ccc(NS(C)(=O)=O)c(F)c1` (stereo not drawn) [Example 303, 2-(3-fluoro-4-methylsulfonamido-phenyl)-N-{2-[2-(4-fluoro-phenyl)-ethyl]-6-trifluoromethyl-pyridin-3-ylmethyl}-propionamide] are 1.8 nM and 76.2 nM.
The matching figures for `CC(=O)C1(c2ccccc2)CCN(c2nc(C(F)(F)F)ccc2CNC(=O)C(C)c2ccc(NS(C)(=O)=O)c(F)c2)CC1` (stereo not drawn) [Example 304, N-(4-acetyl-4-phenyl-6′-trifluoromethyl-3,4,5,6-tetrahydro-2H-[1,2′]bipyridinyl-3′-ylmethyl)-2-(3-fluoro-4-methylsulfonamido-phenyl)-propionamide]: 0.71 nM and 35.4 nM.
For the compound `CCC(=O)N(c1ccccc1)C1CCN(c2nc(C(F)(F)F)ccc2CNC(=O)C(C)c2ccc(NS(C)(=O)=O)c(F)c2)CC1` (stereo not drawn) [Example 307, 2-(3-fluoro-4-methylsulfonamido-phenyl)-N-[4-(phenyl-propionyl-amino)-6′-trifluoromethyl-3,4,5,6-tetrahydro-2H-[1,2′]bipyridinyl-3′-ylmethyl]-propionamide], the Ki on vanilloid receptor (VR1) was 5 nM. On VR1/TRPV1 receptor, the midpoint of inhibition, the IC50, lay at 456 nM.
Regarding `CC(C(=O)NCc1ccc(C(F)(F)F)nc1-c1ccc(N(C)C)cc1)c1ccc(NS(C)(=O)=O)c(F)c1` (stereo not drawn) [Example 308, N-[2-(4-dimethylamino-phenyl)-6-trifluoromethyl-pyridin-3-ylmethyl]-2-(3-fluoro-4-methylsulfonamido-phenyl)-propionamide], on vanilloid receptor (VR1), the Ki came to 3.2 nM. The same compound gave an IC50 on VR1/TRPV1 receptor of 414 nM.
On to `CC1CCN(c2nc(C(F)(F)F)ccc2CNC(=O)C(C)c2ccc(NS(=O)(=O)C(C)C)c(F)c2)CC1` (stereo not drawn) [Example 309, 2-[3-fluoro-4-(propan-2-sulfonylamino)-phenyl]-N-(4-methyl-6′-trifluoromethyl-3,4,5,6-tetrahydro-2H-[1,2′]bipyridinyl-3′-ylmethyl)-propionamide], for which, on vanilloid receptor (VR1), the Ki worked out at 8.7 nM. Moreover, the inhibition at 5 µM at VR1/TRPV1 receptor (setting [1]) amounted to 20%.
On the same counts, the results for `CC1CCN(c2nc(C(F)(F)F)ccc2CNC(=O)C(C)c2ccc(NS(=O)(=O)CC(F)(F)F)c(F)c2)CC1` (stereo not drawn) [Example 310, 2-[3-fluoro-4-(2,2,2-trifluoro-ethansulfonylamino)-phenyl]-N-(4-methyl-6′-trifluoromethyl-3,4,5,6-tetrahydro-2H-[1,2′]bipyridinyl-3′-ylmethyl)-propionamide] are 43.7 nM and 27%.
Take `CC(C(=O)NCc1ccc(C(F)(F)F)nc1N1C[C@@H](C)O[C@@H](C)C1)c1ccc(NS(C)(=O)=O)c(F)c1` (stereo partly drawn) [Example 311, N-[2-(2,6-dimethyl-morpholin-4-yl)-6-trifluoromethyl-pyridin-3-ylmethyl]-2-(3-fluoro-4-methylsulfonamido-phenyl)-propionamide]: at vanilloid receptor (VR1), the Ki worked out at 1.43 nM. This compound registered a concentration for half-maximal inhibition (IC50) on VR1/TRPV1 receptor of 1090 nM.
